Reference: patent publication US20260167627A1, “NEW SOLID FORMS OF (3R)-N-[2-CYANO-4-FLUORO-3-(3-METHYL-4-OXO-QUINAZOLIN-6-YL)OXY-PHENYL]-3-FLUORO-PYRROLIDINE-1-SULFONAMIDE” (Hoffmann-La Roche Inc., priority 2023, published 2026)

Key:
[1] = cited from earlier work
[2] = Moisture sorption/desorption (DVS), hygroscopicity; assay type: physicochemical
Method: Moisture sorption/desorption data was collected on a DVS Advantage, a DVS Adventure, or a DVS Intrinsic (SMS Surface Measurements Systems) moisture balance system. The sorption/desorption isotherms were measured stepwise in a range from 0%-RH to 90%-RH at typically 25° C. A weight change of typically <0.001%/min was chosen as criterion to switch to the next level of relative humidity (with a maximum equilibration time of typically 24 hours, if the weight change criterion was not met). The data were corrected for the initial moisture content of the samples by taking the weight after drying of the samples at 0%-RH as zero point.
The hygroscopicity of a given substance was characterized (by close analogy with the European Pharmacopoeia) by the increase in mass when the relative humidity was raised from 0%-RH to 90%-RH:
European Pharmacopoeia-8″ Edition (2014), Chapter 5.11.

[3] = Thermodynamic stability of the solid form; assay type: physicochemical
[4] = Thermogravimetric analysis (TGA); assay type: physicochemical; details: heating rate 5 K/min under nitrogen, FIG. 3
Method: Thermogravimetric analyses (TGA) were performed on a Mettler-Toledo™ thermogravimetric analyzer (TGA/DSC1 or TGA/DSC3+). System suitability tests were performed with Hydranal as reference substance and calibrations using Aluminum and Indium as reference substances. For the thermogravimetric analyses, approx. 5 to 15 mg (about 7.197 mg of Form B) of sample were placed in aluminum pans, accurately weighed and hermetically closed with perforation lids. Prior to measurement, the lids were automatically pierced resulting in approx. 0.5 mm pin holes. The samples were then heated under a flow of nitrogen of about 50 mL/min using a heating rate of 5 K/min to a maximum temperature of typically 350° C.

| water uptake according to European Pharmacopeia ([2]; 0%-RH to 90%-RH) [%] | thermodynamic stability of solid form [3] | mass loss (TGA) [4] [%] | Structure (SMILES) | brain permeability [1] | hygroscopicity class ([2]; relative humidity raised from 0%-RH to 90%-RH, typically 25° C.) |
| --- | --- | --- | --- | --- | --- |
| – | – | – | CCCS(=O)(=O)Nc1ccc(F)c(C(=O)c2c[nH]c3ncc(-c4ccc(Cl)cc4)cc23)c1F [Vemurafenib] | very poor | – |
| – | – | – | CC(C)(C)c1nc(-c2cccc(NS(=O)(=O)c3c(F)cccc3F)c2F)c(-c2ccnc(N)n2)s1 [Dabrafenib] | very poor | – |
| < 0.2 | thermodynamically stable form | 0.087 | Cn1cnc2ccc(Oc3c(F)ccc(NS(=O)(=O)N4CC[C@@H](F)C4)c3C#N)cc2c1=O [Form B, (3R)—N-[2-cyano-4-fluoro-3-(3-methyl-4-oxo-quinazolin-6-yl)oxy-phenyl]-3-fluoro-pyrrolidine-1-sulfonamide] | – | non-hygroscopic (weight increase Dm < 0.2%) |
| – | – | – | COC(=O)N[C@@H](C)CNc1nccc(-c2cn(C(C)C)nc2-c2cc(Cl)cc(NS(C)(=O)=O)c2F)n1 [Encorafenib] | very poor | – |
